One assay has as its target T1, hA1AR G279S^7.44 (Homo sapiens, UniProt P30542, G279S).
T1 sequence (P30542 1-326 G279S): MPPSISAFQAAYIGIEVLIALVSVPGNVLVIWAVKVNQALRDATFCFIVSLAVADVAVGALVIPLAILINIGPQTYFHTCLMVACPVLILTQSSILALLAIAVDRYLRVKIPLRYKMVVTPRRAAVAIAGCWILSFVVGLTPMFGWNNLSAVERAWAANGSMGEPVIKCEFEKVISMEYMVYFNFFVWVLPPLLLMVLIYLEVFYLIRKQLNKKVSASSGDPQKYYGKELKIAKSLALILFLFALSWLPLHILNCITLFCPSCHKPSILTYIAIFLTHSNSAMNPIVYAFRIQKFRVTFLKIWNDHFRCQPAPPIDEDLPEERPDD
In words: yeast liquid growth assay. It counts as cell-based. The note with it: ratio over basal activity of wild type hA1AR, 7 mM 3-AT.

Another assay addresses T2, hA1AR R122Q^4.40 (Homo sapiens, UniProt P30542, R122Q).
T2 construct: expressed in transfected cells; host or cells: S. cerevisiae MMY24
T2 sequence (P30542 1-326 R122Q): T1 sequence (P30542 1-326 G279S) with R122Q, S279G
Description: yeast liquid growth assay. It is filed as cell-based. The note with it: ratio over basal activity of wild type hA1AR, 7 mM 3-AT.

A further assay concerns A1AR P86F^3.31. More on the design: method as in PMID 9920910. The note with it: result in words; cited from earlier work.

Numbering of substitutions follows the chain as printed.

These results are taken from paper PMC9229843, “Cancer-Related Somatic Mutations in Transmembrane Helices Alter Adenosine A1 Receptor Pharmacology” (Molecules, 2022).

Regarding `OC[C@H]1O[C@@H](n2cnc3c(NC4CCCC4)ncnc32)[C@H](O)[C@@H]1O` [CPA, N^6-cyclopentyladenosine], the figures for the Emax on hA1AR G279S^7.44 and at hA1AR R122Q^4.40 were 4.96 ± 0.38 and 4.67 ± 0.22, respectively. In the assay on A1AR P86F^3.31, the CPA binding result is on record as “abolished”.
